Test results published in ChEMBL document CHEMBL4219148, “Discovery of a highly potent orally bioavailable imidazo-[1, 2-a]pyrazine Aurora inhibitor” (Bioorg Med Chem Lett, 2018).

Legend:
[1] = Volume of distribution in dog at 1 mg/kg, iv; format: ADME, organism-based, Canis lupus familiaris; conditions: in vivo
[2] = target: Cyclin-dependent kinase 2 (Homo sapiens, UniProt P24941); test: Inhibition of CDK2 (unknown origin)
[3] = Protein binding in mouse plasma; format: ADME, cell-free; conditions: read-out: PPB (converted)
[4] = Protein binding in rat plasma; format: ADME, cell-free; conditions: read-out: PPB (converted)
[5] = target: Hepatocyte growth factor receptor (Homo sapiens, UniProt P08581); test: Inhibition of MET (unknown origin)
[6] = AUC (0 to 48 hrs) in dog at 3 mg/kg, po; format: ADME, organism-based, Canis lupus familiaris; parameters: dose 3 mg/kg, time < 48 hr, route oral; conditions: in vivo
[7] = Oral bioavailability in dog at 3 mg/kg; format: ADME, organism-based, Canis lupus familiaris; conditions: in vivo
[8] = target: Cytochrome P450 2C9 (Homo sapiens, UniProt P11712); test: Inhibition of CYP2C9 in human liver microsomes; format: ADME
[9] = Clearance in mouse at 3 mg/kg, iv; format: ADME, organism-based; conditions: in vivo
[10] = target: Casein kinase I isoform delta (Homo sapiens, UniProt P48730); test: Inhibition of CSNK1D (unknown origin)
[11] = target: T1, Ephrin type-B receptor 4 (Homo sapiens, UniProt P54760); test: Inhibition of EPHB4 (unknown origin)
T1 sequence (P54760 whole entry): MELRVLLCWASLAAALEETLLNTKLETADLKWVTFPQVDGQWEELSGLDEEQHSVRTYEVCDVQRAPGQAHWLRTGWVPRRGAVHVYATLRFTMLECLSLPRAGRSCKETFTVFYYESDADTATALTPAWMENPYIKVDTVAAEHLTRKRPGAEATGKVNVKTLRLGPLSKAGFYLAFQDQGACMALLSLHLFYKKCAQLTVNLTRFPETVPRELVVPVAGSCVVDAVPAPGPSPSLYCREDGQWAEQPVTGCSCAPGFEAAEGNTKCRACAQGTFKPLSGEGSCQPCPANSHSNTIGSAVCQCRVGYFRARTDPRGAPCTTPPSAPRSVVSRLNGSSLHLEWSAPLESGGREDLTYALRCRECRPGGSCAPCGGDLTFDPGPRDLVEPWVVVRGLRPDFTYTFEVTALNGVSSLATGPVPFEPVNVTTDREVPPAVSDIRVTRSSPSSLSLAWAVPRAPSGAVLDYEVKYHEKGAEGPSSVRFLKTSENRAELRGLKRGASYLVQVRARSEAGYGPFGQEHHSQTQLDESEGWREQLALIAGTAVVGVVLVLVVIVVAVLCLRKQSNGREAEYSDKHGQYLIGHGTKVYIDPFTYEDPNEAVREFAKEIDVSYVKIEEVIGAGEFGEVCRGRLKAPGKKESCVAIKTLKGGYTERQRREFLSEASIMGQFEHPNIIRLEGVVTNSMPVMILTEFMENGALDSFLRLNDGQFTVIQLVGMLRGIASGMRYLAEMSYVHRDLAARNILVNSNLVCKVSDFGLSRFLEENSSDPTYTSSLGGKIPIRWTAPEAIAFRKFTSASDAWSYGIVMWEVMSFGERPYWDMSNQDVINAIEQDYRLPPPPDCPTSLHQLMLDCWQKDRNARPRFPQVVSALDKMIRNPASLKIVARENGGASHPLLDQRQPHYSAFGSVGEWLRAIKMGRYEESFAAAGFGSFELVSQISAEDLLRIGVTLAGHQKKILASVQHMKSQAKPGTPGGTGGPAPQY

[12] = Half life in monkey at 1 mg/kg, iv; format: ADME, organism-based, Macaca mulatta; conditions: rhesus monkey, in vivo
[13] = Half life in mouse at 3 mg/kg, iv; format: ADME, organism-based; conditions: in vivo
[14] = AUC (0 to 48 hrs) in dog at 1 mg/kg, iv; format: ADME, organism-based, Canis lupus familiaris; parameters: dose 1 mg/kg, time < 48 hr, route intravenous; conditions: in vivo
[15] = target: Glycogen synthase kinase-3 beta (Homo sapiens, UniProt P49841); test: Inhibition of GSK3b (unknown origin)
[16] = target: Rho-associated protein kinase 2 (Homo sapiens, UniProt O75116); test: Inhibition of ROCK2 (unknown origin)
[17] = target: T2, Serine/threonine-protein kinase 3 (Homo sapiens, UniProt Q13188); test: Inhibition of MST2 (unknown origin)
T2 sequence (Q13188 whole entry): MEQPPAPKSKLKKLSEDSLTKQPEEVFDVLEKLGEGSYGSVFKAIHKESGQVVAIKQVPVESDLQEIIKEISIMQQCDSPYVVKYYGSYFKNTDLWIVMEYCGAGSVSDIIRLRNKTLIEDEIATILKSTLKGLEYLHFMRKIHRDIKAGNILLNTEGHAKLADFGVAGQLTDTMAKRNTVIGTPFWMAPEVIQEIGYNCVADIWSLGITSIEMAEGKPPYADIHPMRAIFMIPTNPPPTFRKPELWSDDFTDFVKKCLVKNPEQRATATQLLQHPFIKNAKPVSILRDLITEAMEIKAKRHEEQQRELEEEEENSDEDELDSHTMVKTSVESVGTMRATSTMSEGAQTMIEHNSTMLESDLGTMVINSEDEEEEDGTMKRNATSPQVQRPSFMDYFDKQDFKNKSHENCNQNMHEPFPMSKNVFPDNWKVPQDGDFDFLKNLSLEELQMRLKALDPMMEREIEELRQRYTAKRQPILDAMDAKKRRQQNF

[18] = target: Aurora kinase B (Homo sapiens, UniProt Q96GD4); test: Inhibition of Aurora B in human HCT116 cells assessed as reduction in phosphorylation of Histone H3 at Ser10 residue incubated for 1 hr by Hoechst 33342 dye-based immunofluorescence microscopic method; format: cell-based
[19] = target: T3, Inhibitor of nuclear factor kappa-B kinase subunit beta (Homo sapiens, UniProt O14920); test: Inhibition of IKKB (unknown origin)
T3 sequence (O14920 whole entry): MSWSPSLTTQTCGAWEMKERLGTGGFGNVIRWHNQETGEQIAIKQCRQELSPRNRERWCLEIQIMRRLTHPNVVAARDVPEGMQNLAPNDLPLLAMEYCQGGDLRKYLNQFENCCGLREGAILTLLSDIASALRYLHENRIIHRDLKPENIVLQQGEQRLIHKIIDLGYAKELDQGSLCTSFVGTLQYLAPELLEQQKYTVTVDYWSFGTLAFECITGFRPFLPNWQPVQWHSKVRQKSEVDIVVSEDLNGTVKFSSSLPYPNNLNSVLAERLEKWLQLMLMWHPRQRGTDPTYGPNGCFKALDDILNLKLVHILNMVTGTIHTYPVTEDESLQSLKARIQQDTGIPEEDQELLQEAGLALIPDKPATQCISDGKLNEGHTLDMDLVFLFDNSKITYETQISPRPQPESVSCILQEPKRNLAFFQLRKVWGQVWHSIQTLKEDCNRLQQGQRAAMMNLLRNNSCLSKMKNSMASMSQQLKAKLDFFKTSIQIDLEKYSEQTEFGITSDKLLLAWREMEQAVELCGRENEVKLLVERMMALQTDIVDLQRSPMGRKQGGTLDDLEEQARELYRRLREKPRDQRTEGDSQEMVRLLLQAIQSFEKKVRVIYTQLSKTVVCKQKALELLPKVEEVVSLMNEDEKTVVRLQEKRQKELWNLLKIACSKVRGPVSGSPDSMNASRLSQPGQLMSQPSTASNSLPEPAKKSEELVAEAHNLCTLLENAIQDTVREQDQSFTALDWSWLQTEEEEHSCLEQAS

Chain of Glycogen synthase kinase-3 beta (P49841 whole entry): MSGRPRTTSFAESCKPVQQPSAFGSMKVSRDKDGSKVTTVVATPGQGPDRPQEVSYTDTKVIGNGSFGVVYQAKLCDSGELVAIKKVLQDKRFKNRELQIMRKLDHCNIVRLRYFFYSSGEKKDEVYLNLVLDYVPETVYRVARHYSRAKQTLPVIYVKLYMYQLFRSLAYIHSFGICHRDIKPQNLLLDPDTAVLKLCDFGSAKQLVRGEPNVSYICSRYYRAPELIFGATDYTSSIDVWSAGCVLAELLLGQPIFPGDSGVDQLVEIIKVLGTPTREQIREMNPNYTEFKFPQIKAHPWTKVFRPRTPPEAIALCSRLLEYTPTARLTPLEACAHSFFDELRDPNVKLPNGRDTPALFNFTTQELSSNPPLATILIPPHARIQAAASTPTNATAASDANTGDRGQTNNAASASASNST
Chain of Casein kinase I isoform delta (P48730 whole entry, canonical isoform): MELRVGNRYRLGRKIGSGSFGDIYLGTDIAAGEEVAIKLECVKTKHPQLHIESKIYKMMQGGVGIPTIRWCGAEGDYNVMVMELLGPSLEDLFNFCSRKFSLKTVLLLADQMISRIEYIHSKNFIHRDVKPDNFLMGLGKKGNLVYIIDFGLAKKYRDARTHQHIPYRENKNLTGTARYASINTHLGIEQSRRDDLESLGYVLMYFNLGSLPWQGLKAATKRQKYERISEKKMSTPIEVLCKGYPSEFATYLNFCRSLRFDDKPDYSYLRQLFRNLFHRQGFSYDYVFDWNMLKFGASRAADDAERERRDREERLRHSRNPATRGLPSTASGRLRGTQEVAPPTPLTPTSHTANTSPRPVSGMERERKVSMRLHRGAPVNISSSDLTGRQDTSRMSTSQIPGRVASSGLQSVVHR
Chain of Aurora kinase B (Q96GD4 whole entry): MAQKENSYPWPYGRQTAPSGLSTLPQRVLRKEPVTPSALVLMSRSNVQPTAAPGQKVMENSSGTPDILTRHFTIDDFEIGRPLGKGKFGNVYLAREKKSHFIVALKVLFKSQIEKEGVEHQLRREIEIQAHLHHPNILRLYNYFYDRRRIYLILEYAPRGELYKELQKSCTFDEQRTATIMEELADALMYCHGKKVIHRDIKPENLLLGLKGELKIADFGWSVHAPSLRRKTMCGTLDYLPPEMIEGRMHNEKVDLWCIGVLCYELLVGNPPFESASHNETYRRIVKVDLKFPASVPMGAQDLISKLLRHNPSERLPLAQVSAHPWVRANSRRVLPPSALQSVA
Chain of Rho-associated protein kinase 2 (O75116 whole entry): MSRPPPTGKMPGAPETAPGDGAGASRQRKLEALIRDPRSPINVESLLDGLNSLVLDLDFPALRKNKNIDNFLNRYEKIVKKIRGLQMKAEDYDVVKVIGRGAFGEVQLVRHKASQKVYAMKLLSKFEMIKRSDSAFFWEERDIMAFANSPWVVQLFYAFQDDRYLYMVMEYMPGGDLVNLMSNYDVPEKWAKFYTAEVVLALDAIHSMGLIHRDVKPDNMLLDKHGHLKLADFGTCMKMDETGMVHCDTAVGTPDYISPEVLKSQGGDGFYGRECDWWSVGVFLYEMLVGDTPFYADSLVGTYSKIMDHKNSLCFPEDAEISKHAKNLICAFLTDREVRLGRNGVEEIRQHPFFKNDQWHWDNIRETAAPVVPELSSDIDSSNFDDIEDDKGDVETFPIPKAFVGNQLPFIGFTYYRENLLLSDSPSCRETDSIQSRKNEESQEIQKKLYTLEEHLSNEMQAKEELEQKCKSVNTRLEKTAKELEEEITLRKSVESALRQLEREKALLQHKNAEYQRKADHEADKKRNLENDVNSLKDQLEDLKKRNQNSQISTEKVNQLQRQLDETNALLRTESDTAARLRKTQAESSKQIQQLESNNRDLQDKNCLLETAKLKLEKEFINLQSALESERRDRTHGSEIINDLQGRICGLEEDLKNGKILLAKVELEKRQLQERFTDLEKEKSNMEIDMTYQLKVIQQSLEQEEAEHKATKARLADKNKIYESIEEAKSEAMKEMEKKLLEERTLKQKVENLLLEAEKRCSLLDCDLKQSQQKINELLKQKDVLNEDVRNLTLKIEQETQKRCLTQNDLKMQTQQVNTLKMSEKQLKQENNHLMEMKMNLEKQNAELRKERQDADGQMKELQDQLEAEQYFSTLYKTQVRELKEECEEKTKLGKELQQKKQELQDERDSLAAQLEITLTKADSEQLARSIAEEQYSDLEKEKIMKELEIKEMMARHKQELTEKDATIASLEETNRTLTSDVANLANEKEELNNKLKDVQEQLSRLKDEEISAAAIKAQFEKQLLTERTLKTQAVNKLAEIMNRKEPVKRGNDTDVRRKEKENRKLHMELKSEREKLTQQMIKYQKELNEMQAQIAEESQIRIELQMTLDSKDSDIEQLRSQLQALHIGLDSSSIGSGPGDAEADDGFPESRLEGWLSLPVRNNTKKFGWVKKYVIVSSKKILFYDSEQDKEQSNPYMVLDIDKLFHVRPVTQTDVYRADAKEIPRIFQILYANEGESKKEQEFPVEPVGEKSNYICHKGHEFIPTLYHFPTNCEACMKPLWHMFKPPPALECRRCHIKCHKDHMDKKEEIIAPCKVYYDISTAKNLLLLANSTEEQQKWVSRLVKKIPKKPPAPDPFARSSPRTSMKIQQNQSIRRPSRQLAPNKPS
Chain of Hepatocyte growth factor receptor (P08581 whole entry): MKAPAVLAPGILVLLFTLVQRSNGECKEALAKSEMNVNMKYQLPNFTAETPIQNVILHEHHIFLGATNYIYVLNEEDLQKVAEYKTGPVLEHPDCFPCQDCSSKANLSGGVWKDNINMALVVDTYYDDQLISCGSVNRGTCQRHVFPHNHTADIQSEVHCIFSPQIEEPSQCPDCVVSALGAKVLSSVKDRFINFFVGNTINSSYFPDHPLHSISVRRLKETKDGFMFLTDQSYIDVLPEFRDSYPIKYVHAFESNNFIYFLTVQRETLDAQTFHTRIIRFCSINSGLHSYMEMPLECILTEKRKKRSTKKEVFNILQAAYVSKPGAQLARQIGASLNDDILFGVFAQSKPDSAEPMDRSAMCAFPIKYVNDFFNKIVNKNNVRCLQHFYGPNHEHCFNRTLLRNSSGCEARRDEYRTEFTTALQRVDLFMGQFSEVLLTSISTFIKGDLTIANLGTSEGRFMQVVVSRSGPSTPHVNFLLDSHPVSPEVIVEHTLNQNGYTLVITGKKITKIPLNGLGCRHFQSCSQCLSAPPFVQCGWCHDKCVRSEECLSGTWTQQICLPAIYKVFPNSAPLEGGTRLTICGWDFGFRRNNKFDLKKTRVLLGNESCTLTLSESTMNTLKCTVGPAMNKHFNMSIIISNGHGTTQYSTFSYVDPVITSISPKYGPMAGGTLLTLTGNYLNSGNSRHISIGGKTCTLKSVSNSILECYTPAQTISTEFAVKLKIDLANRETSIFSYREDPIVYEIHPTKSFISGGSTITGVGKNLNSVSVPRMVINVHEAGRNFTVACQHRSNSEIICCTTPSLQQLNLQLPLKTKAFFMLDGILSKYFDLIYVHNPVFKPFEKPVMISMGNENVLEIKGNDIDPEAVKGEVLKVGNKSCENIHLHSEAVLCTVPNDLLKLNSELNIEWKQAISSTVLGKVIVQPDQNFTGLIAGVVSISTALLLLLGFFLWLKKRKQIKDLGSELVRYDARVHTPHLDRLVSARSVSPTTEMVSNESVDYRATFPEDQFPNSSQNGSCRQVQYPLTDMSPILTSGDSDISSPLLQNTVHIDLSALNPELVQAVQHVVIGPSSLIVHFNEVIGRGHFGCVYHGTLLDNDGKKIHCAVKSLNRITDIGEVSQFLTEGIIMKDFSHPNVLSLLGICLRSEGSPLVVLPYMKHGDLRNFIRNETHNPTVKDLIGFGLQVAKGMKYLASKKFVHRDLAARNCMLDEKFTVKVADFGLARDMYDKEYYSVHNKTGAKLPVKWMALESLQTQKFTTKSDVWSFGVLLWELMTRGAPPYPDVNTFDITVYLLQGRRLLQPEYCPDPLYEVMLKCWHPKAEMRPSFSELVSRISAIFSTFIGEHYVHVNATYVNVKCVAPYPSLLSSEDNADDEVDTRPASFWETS
Chain of Cytochrome P450 2C9 (P11712 whole entry): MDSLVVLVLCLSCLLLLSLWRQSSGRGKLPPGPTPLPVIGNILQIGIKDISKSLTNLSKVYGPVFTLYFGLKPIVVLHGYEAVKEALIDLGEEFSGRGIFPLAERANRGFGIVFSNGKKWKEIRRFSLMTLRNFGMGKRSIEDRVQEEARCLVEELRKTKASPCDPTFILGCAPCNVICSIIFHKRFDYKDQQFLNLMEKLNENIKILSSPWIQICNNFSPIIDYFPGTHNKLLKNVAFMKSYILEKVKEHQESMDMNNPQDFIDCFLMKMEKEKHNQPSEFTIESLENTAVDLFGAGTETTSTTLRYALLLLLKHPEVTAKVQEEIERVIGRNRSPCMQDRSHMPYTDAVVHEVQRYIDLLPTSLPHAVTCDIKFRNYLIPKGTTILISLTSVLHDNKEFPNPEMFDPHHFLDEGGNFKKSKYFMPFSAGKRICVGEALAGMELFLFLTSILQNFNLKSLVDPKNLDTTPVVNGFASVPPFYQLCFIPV

| IC50 [2] [nM] | IC50 [5] [nM] | IC50 [10] [nM] | IC50 [11] [nM] | IC50 [15] [nM] | IC50 [16] [nM] | IC50 [17] [nM] | EC50 [18] [nM] | IC50 [19] [nM] | Structure (SMILES) | Vd [1] [L/kg] | fraction unbound [3] | fraction unbound [4] | AUC(0-t) at 48 h [6] [µM·h] | bioavailability [7] [%] | IC50 [8] [nM] | clearance [9] [mL/min/kg] | half-life [12] [h] | half-life [13] [h] | AUC(0-t) at 48 h [14] [µM·h] |
| --- | --- | --- | --- | --- | --- | --- | --- | --- | --- | --- | --- | --- | --- | --- | --- | --- | --- | --- | --- |
| > 500 | > 500 | > 500 | 390 | > 500 | > 500 | > 500 | 117 | > 500 | Cc1cn2c(-c3cn[nH]c3)cnc2c(Nc2cc(Cc3ccccn3)ns2)n1 | 0.2 | 0.028 | 0.004 | 4.1 | 15 | > 20000 | 118 | 0.5 | 0.2 | 9.2 |
| > 500 | > 500 | > 500 | 100 | > 500 | > 500 | > 500 | 24 | > 500 | CCN(CCO)Cc1cc(Nc2nc(C)cn3c(-c4cn[nH]c4)cnc23)sn1 |  |  |  |  |  |  |  |  |  |  |

| Structure (SMILES) | IC50 [2] [nM] | IC50 [5] [nM] | IC50 [10] [nM] | IC50 [11] [nM] | IC50 [15] [nM] | IC50 [16] [nM] | IC50 [17] [nM] | EC50 [18] [nM] | IC50 [19] [nM] | Vd [1] [L/kg] | fraction unbound [3] | fraction unbound [4] | AUC(0-t) at 48 h [6] [µM·h] | bioavailability [7] [%] | IC50 [8] [nM] | clearance [9] [mL/min/kg] | half-life [12] [h] | half-life [13] [h] | AUC(0-t) at 48 h [14] [µM·h] |
| --- | --- | --- | --- | --- | --- | --- | --- | --- | --- | --- | --- | --- | --- | --- | --- | --- | --- | --- | --- |
| Cc1cn2c(-c3cn[nH]c3)cnc2c(Nc2cc(C(NC(C)(C)C)c3ccccn3)ns2)n1 (single isomer, unassigned; (+)) | > 1000 | > 1000 | > 1000 | 38 | > 1000 | > 1000 | > 1000 | < 16 | > 1000 | 3.7 | 0.028 | 0.01 | 10.1 | 86 | 6000 | 50 | 2.2 | 1.8 | 3.9 |
